From PubChem BioAssay AID686998 (Broad Institute, 2013)
Values joined by “and” are separate entries in the source; they are usually repeats but may differ in a detail not shown here. Equal values may be shown once. Inconclusive results are not listed. Active and inactive are the calls of the source.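 How the source made its calls: active means falling signal with fitted half-maximal potency no higher than twice the top valid tested dose; inconclusive means poor fit quality, or flat fit spanning -70% to -30%; inactive means potency over limit, rising signal, or flat fit inside 30%.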

System: Cryptococcus neoformans growth, Alamar Blue, 24 h
Experiment: Cryptococcus neoformans growth inhibition, dose response, Alamar Blue, cherry-picks (AID 686998)

| SMILES | IC50 |
| --- | --- |
| C[C@@H]1CN([C@H](C)CO)C(=O)CCCn2nncc2CO[C@H]1CN(C)Cc1cccc(C(F)(F)F)c1 | 4.17 µM |
| CC(C)NC(=O)N(C)C[C@H]1Oc2c(NS(=O)(=O)c3ccc(Cl)cc3)cccc2C(=O)N([C@@H](C)CO)C[C@@H]1C | 41.8 µM |
| COC(=O)C1=C(C)N(Cc2ccc(F)cc2)C(=S)NC1c1cccc(OC)c1 (stereo not given) | 31 µM |
| COC(=O)C1=C(C)N(Cc2ccccc2)C(=S)N[C@H]1c1ccc(Br)cc1 | 4.51 µM |
| CC=Cc1ccc2n(c1=O)C[C@@H]1[C@@H](CO)[C@H](C(=O)NCc3ccc4c(c3)OCO4)[C@H]2N1C(=O)C1CC1 (mixture of isomers) | 23.3 µM |
| CNC[C@@H]1Oc2ccc(NS(=O)(=O)c3ccc(Cl)cc3)cc2C(=O)N([C@H](C)CO)C[C@H]1C | 46.4 µM |
| CC(C)NC(=O)Nc1ccc2c(c1)C(=O)N([C@H](C)CO)C[C@H](C)[C@H](CN(C)Cc1ccncc1)OCCCC[C@H](C)O2 | 54.6 µM |
| COC(=O)C1=C(C)N(Cc2ccc(Cl)cc2)C(=S)NC1c1cccc(Cl)c1 (stereo not given) | 15.1 µM |
| CC12CC3CC(C)(C1)CC(C(=O)NC(=S)N1CCCCC1)(C3)C2 | 15.5 µM |
| COC(=O)C1=C(C)N(Cc2ccc(Cl)cc2)C(=S)NC1c1cccc(OC)c1 (stereo not given) | 6.55 µM and 8.91 µM |
| C/C=C/c1ccc([C@@H]2[C@H]3CN(C(=O)Nc4ccc(OC)cc4)CCCCN3[C@H]2CO)cc1 | > 70 µM (inactive) |
| C[C@H](CO)N1C[C@H](C)[C@H](CN(C)Cc2ccccc2F)Oc2cc(C3=CCCC3)ccc2S1(=O)=O | 36.3 µM |
| CO[C@@H]1CN(C)C(=O)c2ccc(NC(C)=O)cc2OC[C@@H](C)N(C(=O)Cc2cccnc2)C[C@H]1C | > 60 µM (inactive) |
| COc1ccc(NC(=O)CN2CCN(S(=O)(=O)c3ccc(C(C)C)cc3)CC2)cc1OC | 43.7 µM |
| CCCNC(=O)[C@H]1[C@H](CO)[C@H]2Cn3c(cccc3=O)[C@@H]1N2C(=O)Nc1cc(F)ccc1F | 68.5 µM |
| N#C[C@H]1[C@@H](c2ccc(C#CCC3CCCC3)cc2)[C@@H](CO)N1C(=O)c1ccccn1 | 25.9 µM |
| CN1c2ccc(-c3ccc(F)cc3)cc2[C@H]2[C@H](CCN2S(=O)(=O)c2cccc(F)c2)[C@H]1CO | 6.07 µM |
| O=C(NC(=S)Nc1ccccc1N1CCCC1)c1ccccc1[N+](=O)[O-] | 1.42 µM |
| Cc1cc(C)c(NC(=O)CN(C2CCCCC2)C2CCCCC2)c(C)c1 | 32.9 µM |
| Cc1ccccc1NC(=O)C(NC1CCCCC1)C(C)C (stereo not given) | 1.46 µM |
| O=C(C1CCOCC1)N1C[C@H]2[C@@H](c3ccccc31)[C@@H](CO)N2Cc1ccccc1Cl | 1.88 µM |
| COc1ccc(NC(=O)c2cn(C)c(=O)c3cc(OC)c(OC)cc23)c(OC)c1 | > 70 µM (inactive) |
| CC(C)CC#Cc1cnc2c(c1)C(=O)N([C@@H](C)CO)C[C@H](C)[C@H](CN(C)C(=O)c1ccc3c(c1)OCO3)O2 | 5.12 µM |

| SMILES | IC50 |
| --- | --- |
| COC(=O)C1=C(C)N(Cc2ccc(Cl)cc2)C(=S)NC1c1ccc(OC)cc1 (stereo not given) | 22.6 µM |
| O=C(CCN1CCCCC1)NCC[C@@H]1CC[C@H](NC(=O)c2ccc(F)cc2)[C@@H](CO)O1 | > 70 µM (inactive) |
| COc1cccc(NC(=S)N2CCC(Cc3ccccc3)CC2)c1 | 8.22 µM |
| O=C(C[C@@H]1C=C[C@@H](NC(=O)Nc2cc(F)ccc2F)[C@H](CO)O1)NCCCN1CCOCC1 | 68.3 µM |
| O=C(C[C@@H]1CC[C@@H]2[C@H](COC[C@@H](O)CN2C(=O)Nc2ccc(Cl)cc2)O1)NC1Cc2ccccc2C1 | 6.79 µM |
| O=C(C[C@H]1CC[C@H]2[C@@H](COC[C@H](O)CN2C(=O)Nc2ccc3c(c2)OCO3)O1)N1CCN(c2ccccc2)CC1 | > 70 µM (inactive) |
| CC(=O)N[C@H]1CC[C@H](CCNC(=O)C2CCC2)O[C@@H]1CO | > 70 µM (inactive) |
| CCC(C)c1ccc(NC(=S)N2CCN(c3ccccn3)CC2)cc1 (stereo not given) | 17.5 µM |
| CC(NC(=O)COc1ccccc1C(C)(C)C)c1ccccc1 (stereo not given) | 3.83 µM |
| Cc1cc(Cl)ccc1NC(=S)NCc1ccc(F)cc1 | 15.5 µM |
| Fc1ccccc1NC(=S)NCCc1cccc(Cl)c1 | 16 µM |
| Cc1ccc(C2CC(c3cccs3)=NN2C(=O)c2ccc(Br)o2)cc1 (stereo not given) | 0.375 µM |
| Cc1cccc(C)c1NC(=O)C1(C)CCC(=O)N1CCCn1ccnc1 (stereo not given) | < 0.26 µM |
| COC(=O)C1=C(C)N(Cc2ccc(F)cc2)C(=S)NC1c1ccccc1 (stereo not given) | 29.4 µM |
| O=C(c1cccnc1)N1C[C@H]2[C@@H](c3ccccc31)[C@@H](CO)N2C(=O)Nc1ccc(F)cc1 | 6.72 µM |
| CCC(=O)Nc1ccc2c(c1)OC[C@H](C)N(C(=O)c1ccc(F)cc1)C[C@@H](C)[C@@H](OC)CN(C)C2=O | 48.2 µM |
| Cc1cccc(-c2ccc([C@@H]3[C@@H](CO)N4CCCCN(S(=O)(=O)c5ccccc5C)C[C@@H]34)cc2)c1 | 2.62 µM |
| C[C@@H]1CN([C@H](C)CO)C(=O)c2ccccc2-c2ccccc2CO[C@H]1CN(C)S(=O)(=O)c1cccc(C#N)c1 | 66.7 µM |
| Cc1ccccc1NC(=S)NC(=O)CCc1ccccc1 | 5.62 µM |
| CCCC[C@@H]1CNC(=S)N1CCc1cccc(F)c1 | 1.29 µM |
| C[C@H](CO)N1C[C@H](C)[C@H](CN(C)S(=O)(=O)c2cn(C)cn2)Oc2ncc(/C=C/c3ccccc3)cc2C1=O | 60.1 µM |
| COc1cc(CO)cc(I)c1O[C@H]1C=C(C(=O)NCCO)C[C@@H](N(CC2CCCCC2)C(=O)c2cc3ccccc3oc2=O)[C@@H]1O | 0.479 µM |
| COC(=O)C1=C(C)N(CC(C)C)C(=S)NC1c1cccc(F)c1 (stereo not given) | 23.8 µM and 46.8 µM |

| SMILES | IC50 |
| --- | --- |
| O=C(c1cccs1)N1CCN(c2nc3ccccc3s2)CC1 | > 70 µM (inactive) |
| COc1ccc(C(=O)NC(=S)Nc2ccccc2N2CCOCC2)cc1[N+](=O)[O-] | 26.1 µM |
| CCC(=O)N1[C@H](CO)[C@@H](c2ccc(-c3cccnc3)cc2)[C@@H]1CN(C)C(C)=O | 33.6 µM |
| CCN1C(=S)N[C@@H](c2cccc(F)c2)C(C(=O)OC)=C1C | > 70 µM (inactive) |
| S=C(NCc1ccccc1)NCC1COc2ccccc2O1 (stereo not given) | 21 µM |
| O=C(NC(=S)Nc1ccc(Br)cc1)C1CCC1 | 15.8 µM |
| COC(=O)C1=C(C)N(Cc2ccccc2)C(=S)NC1c1ccc(Br)cc1 (stereo not given) | 10.2 µM |
| CNC[C@H]1Oc2cc(Br)ccc2S(=O)(=O)N([C@H](C)CO)C[C@H]1C | > 70 µM (inactive) |
| Cc1ccc(/C=C2\SC(=S)N(NS(=O)(=O)c3ccc(C)cc3)C2=O)cc1 | 12.7 µM |
| COCC#Cc1cnc2c(c1)C(=O)N([C@@H](C)CO)C[C@H](C)[C@H](CN(C)C(=O)Nc1ccc(OC)cc1)O2 | > 70 µM (inactive) |
| COc1cccc(NC(=O)CN2CCN(S(=O)(=O)c3ccc(C(C)C)cc3)CC2)c1 | > 70 µM (inactive) |
| COC(=O)C1=C(C)N(Cc2ccc(Cl)cc2)C(=S)NC1c1cccc(F)c1 (stereo not given) | 20.4 µM |
| C[C@@H]1CN([C@@H](C)CO)C(=O)c2cc(-c3cncnc3)cnc2O[C@H]1CN(C)C(=O)CN1CCOCC1 | 42.4 µM |
| C[C@H]1CN([C@@H](C)CO)C(=O)c2cc(-c3ccccc3)cnc2O[C@@H]1CN(C)C(=O)c1ccccn1 | 42.3 µM |
| COCC(=O)Nc1ccc2c(c1)C(=O)N(C)C[C@H](OC)[C@@H](C)CN(C(=O)c1ccccc1)[C@@H](C)CO2 | > 70 µM (inactive) |
| CC(C)NC(=O)Nc1ccc2c(c1)C(=O)N([C@@H](C)CO)C[C@@H](C)[C@@H](CN(C)C(=O)NC1CCCCC1)OCCCC[C@H](C)O2 | < 0.26 µM |
| O=C(C1CCOCC1)N1CC[C@@H]2[C@@H](CO)Nc3ccc(Br)cc3[C@@H]21 | > 70 µM (inactive) |
| COC(=O)C1=C(C)N(CC(C)C)C(=S)NC1c1ccc(Cl)cc1 (stereo not given) | 9 µM and 18 µM |
| CN1c2ccc(-c3ccc(F)cc3)cc2[C@@H]2[C@@H](CCN2C(=O)C2CCOCC2)[C@@H]1CO | 0.756 µM |
| C[C@H]1CN([C@@H](C)CO)C(=O)CCCn2cc(nn2)CO[C@@H]1CN(C)Cc1ccc(C(F)(F)F)cc1 | 30.7 µM |
| O=C(NC(=S)Nc1cc(Cl)ccc1N1CCOCC1)c1ccccc1[N+](=O)[O-] | 7.86 µM |
| Cc1c(C(=O)NC(=S)Nc2ccccc2N2CCCC2)cccc1[N+](=O)[O-] | 2.71 µM |
| COC(=O)C1=C(C)N(Cc2ccccc2)C(=O)N[C@H]1c1cccc(F)c1 | 53.8 µM |

| SMILES | IC50 |
| --- | --- |
| COc1ccc(NC(=S)NCc2ccccc2Cl)c(OC)c1 | 43.4 µM |
| C[C@H](CO)N1C[C@H](C)[C@@H](CN(C)Cc2ccc(Oc3ccccc3)cc2)Oc2ccc(NC(=O)Nc3ccc4c(c3)OCO4)cc2C1=O | > 70 µM (inactive) |
| C[C@H]1CN([C@@H](C)CO)C(=O)Cc2cc(NC(=O)C3CC3)ccc2O[C@@H]1CN(C)C(=O)Nc1cccc2ccccc12 | 53.6 µM |
| C[C@H](CO)N1C[C@H](C)[C@@H](CN(C)S(=O)(=O)c2cn(C)cn2)Oc2c(NC(=O)Nc3ccccc3)cccc2C1=O | > 70 µM (inactive) |
| COc1ccc(C(=O)NC(=S)Nc2ccccc2N2CCCCC2)cc1[N+](=O)[O-] | 1.49 µM |
| COc1ccccc1NC(=O)c1cn(C)c(=O)c2cc(OC)c(OC)cc12 | 50.1 µM |
| COCCN1C(=O)CCC1(C)C(=O)Nc1c(C)cccc1C (stereo not given) | 30.2 µM |
| CCOC(=O)NC(=S)Nc1ccc(C(C)(C)C)cc1 | 7.22 µM |
| O=C(C[C@H]1CC[C@@H]2[C@H](COC[C@H](O)CN2CC2CCOCC2)O1)NCc1ccc(Cl)cc1 | 70 µM |
| CN1c2ccc(Br)cc2[C@@H]2[C@@H](CCN2C(=O)Cc2cccnc2)[C@@H]1CO | 2.15 µM |
| COc1cccc(C(=O)NC(=S)Nc2ccccc2N2CCOCC2)c1 | 21.2 µM |
| CC(NC(=O)COc1ccccc1-c1ccccc1)c1ccccc1 (stereo not given) | 2.53 µM |
| Cc1ccc2c(C)c(C(=O)N3CCN(Cc4ccccn4)CC3)oc2c1C | 67.4 µM |
| CNC[C@H]1Oc2ncc(C#CCC(C)C)cc2C(=O)N([C@H](C)CO)C[C@H]1C | > 70 µM (inactive) |
| S=C(Nc1cccc(Cl)c1)Nc1ccccc1Oc1ccccc1 | 13.2 µM |
| COC(=O)C1=C(C)N(Cc2ccccc2)C(=S)NC1c1cccc(OC)c1 (stereo not given) | 32.5 µM |
| O=C(C[C@H]1CC[C@H]2[C@@H](COC[C@H](O)CN2Cc2cc(F)cc(F)c2)O1)Nc1nccs1 | > 70 µM (inactive) |
| Cc1noc(C)c1NC(=O)N(C)C[C@H]1OCCCC[C@@H](C)Oc2ccc(NC(=O)NC(C)C)cc2C(=O)N([C@H](C)CO)C[C@H]1C | > 70 µM (inactive) |
| C[C@@H]1CN([C@H](C)CO)C(=O)c2cc(NS(=O)(=O)c3cn(C)cn3)ccc2O[C@@H](C)CCCCO[C@H]1CN(C)C | 62.9 µM |
| COC(=O)C1=C(C)N(Cc2ccc(Cl)cc2)C(=S)NC1c1ccccc1 (stereo not given) | 10.8 µM |
| CCCC(=O)N1CCC1(C)C(=O)Nc1cc(C)ccc1C (stereo not given) | > 70 µM (inactive) |
